Measured values published in PMC8836905, “Structural and Biochemical Analysis of the Furan Aldehyde Reductase YugJ from Bacillus subtilis” (International Journal of Molecular Sciences, 2022).

Assays:
[1] = biological target: YugJ from Bacillus subtilis (furan aldehyde reductase) (B. subtilis subsp. spizizenii) (UniProt O05239); experiment: SEC; gel filtration on Superdex 200 10/300 in 20 mM Tris, pH 8.0, 150 mM NaCl, 5 mM β-mercaptoethanol; eluted between 44 and 158 kDa standards
YugJ [2] = biological target: T1, YugJ (Bacillus spizizenii, UniProt Z9GGM4DFS4); experiment: NADPH oxidation at […] nm, HMF reduction; format: biochemical; details: 3 mM HMF, 0.2 mM NADPH, Ni2+-bound YugJ, 50 mM HEPES pH 7.4, 150 mM NaCl, 23 °C; presumed competitive
T1 construct: full-length residues 1-387; N-terminal His6 tag removed with thrombin; E. coli BL21(DE3); homodimer

YugJ [3] = biological target: T1, YugJ; experiment: X-ray crystal structure; format: binding

YugJ from Bacillus subtilis (furan aldehyde reductase), sequence (O05239 whole entry): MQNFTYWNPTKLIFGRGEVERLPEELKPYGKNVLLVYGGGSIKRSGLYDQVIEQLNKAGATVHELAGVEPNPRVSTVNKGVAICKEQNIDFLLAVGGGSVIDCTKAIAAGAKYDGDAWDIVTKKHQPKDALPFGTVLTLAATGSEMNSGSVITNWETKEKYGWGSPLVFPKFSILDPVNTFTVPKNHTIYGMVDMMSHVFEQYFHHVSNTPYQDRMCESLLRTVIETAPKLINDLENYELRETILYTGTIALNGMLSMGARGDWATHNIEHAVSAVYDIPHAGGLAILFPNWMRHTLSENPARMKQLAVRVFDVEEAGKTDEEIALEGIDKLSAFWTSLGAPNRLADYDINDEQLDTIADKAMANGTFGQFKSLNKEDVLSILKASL

Work on “YugJ from Bacillus subtilis (furan aldehyde reductase) (from UniProt O05239 1-387) (enzyme)” yielded a stoichiometry N [1] of 2.

`O=[N+]([O-])O` [nitrate] was tested, and the “% inhibition at 360 mM lithium nitrate” value (YugJ [2]) was ~ 75% and the X-ray crystal structure (YugJ [3]; 1.65 Å, with NADP, 0.3 M ammonium nitrate in crystallisation, pH 6.5, near nicotinamide ring, putative substrate site) was “nitrate ion forms hydrogen bonds with the nicotinamide-linked ribose moiety of NADP”.

With `NC(=O)c1ccc[n+]([C@@H]2O[C@H](COP(=O)(O)OP(=O)(O)OC[C@H]3O[C@@H](n4cnc5c(N)ncnc54)[C@H](OP(=O)(O)O)[C@@H]3O)[C@@H](O)[C@H]2O)c1` [NADP] the X-ray crystal structure (YugJ [3]; 1.65 Å with nitrate (7W9Z), 1.93 Å with Ni2+, nicotinamide disordered (7W9Y), interdomain cleft) was “we determined the crystal structures of YugJ in complex with NADP in two crystal forms”.
